Like-named read-outs stand apart in the source and are kept apart here.
Tests used:
[1] = test system: Key Broadleaf Weed and Crop Species; assay: Post-emergent Test II herbicidal activity (Table 5); format: in vivo; details: post-emergence, 336 h, post-emergent, 14 days after application; for pest or weed control at 70 g/ha: 70 g ai/ha; for pest or weed control at 140 g/ha: 140 g ai/ha
In short: (§1)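 Scoring: visual, 0–100% injury at 14 d versus untreated. Treatment: overhead track spray, 187 L/ha, onto plants at the first–second true leaf stage. Growth: greenhouse, ~15 h light, 23–29 °C day, 22–28 °C night.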

[2] = test system: Key Grass and Sedge Weeds as well as Grass Crops; assay: Post-emergent Test II herbicidal activity (Table 6); format: in vivo; details: post-emergence, 336 h; for pest or weed control at 70 g/ha: application rate 70 g ai/ha; for pest or weed control at 140 g/ha: application rate 140 g ai/ha
In short: as §1

[3] = ABUTH: velvetleaf (Abutilon theophrasti), read-out: Visual Growth Reduction (%) 14 Days After Application ABUTH
[4] = AMARE: redroot pigweed (Amaranthus retroflexus), read-out: Visual Growth Reduction (%) 14 Days After Application AMARE
[5] = BRSNN: oilseed-rape, canola (Brassica napus), read-out: Visual Growth Reduction (%) 14 Days After Application BRSNN
[6] = CHEAL: lambsquarters (Chenopodium album), read-out: Visual Growth Reduction (%) 14 Days After Application CHEAL
[7] = EPHHL: wild poinsettia (Euphorbia heterophylla), read-out: Visual Growth Reduction (%) 14 Days After Application EPHHL
[8] = HELAN: sunflower (Helianthus annuus), read-out: Visual Growth Reduction (%) 14 Days After Application HELAN
[9] = VIOTR: wild pansy (Viola tricolor), read-out: Visual Growth Reduction (%) 14 Days After Application VIOTR
[10] = Triticum aestivum, TRZSS (wheat), read-out: Visual Growth Reduction (%) 14 Days After Application, TRZSS
[11] = CYPES: yellow nutsedge (Cyperus esculentus), read-out: Visual Growth Reduction (%) 14 Days After Application, CYPES
[12] = DIGSA: crabgrass (Digitaria sanguinalis), read-out: Visual Growth Reduction (%) 14 Days After Application, DIGSA
[13] = ECHCG: barnyardgrass (Echinochloa crus-galli), read-out: Visual Growth Reduction (%) 14 Days After Application, ECHCG
[14] = ORYSA: rice (Oryza sativa), read-out: Visual Growth Reduction (%) 14 Days After Application, ORYSA
[15] = SETFA: giant foxtail (Setaria faberi), read-out: Visual Growth Reduction (%) 14 Days After Application, SETFA
[16] = SORVU: grain sorghum (Sorghum vulgare), read-out: Visual Growth Reduction (%) 14 Days After Application, SORVU
[17] = ZEAMX: maize, corn (Zea mays), read-out: Visual Growth Reduction (%) 14 Days After Application, ZEAMX

Row | SMILES | pest or weed control at 70 g/ha [1, 3] | pest or weed control at 140 g/ha [1, 3] | pest or weed control at 70 g/ha [1, 4] | pest or weed control at 140 g/ha [1, 4] | pest or weed control at 70 g/ha [1, 5] | pest or weed control at 140 g/ha [1, 5] | pest or weed control at 70 g/ha [1, 6] | pest or weed control at 140 g/ha [1, 6] | pest or weed control at 70 g/ha [1, 7] | pest or weed control at 140 g/ha [1, 7] | pest or weed control at 70 g/ha [1, 8] | pest or weed control at 140 g/ha [1, 8] | pest or weed control at 70 g/ha [1, 9] | pest or weed control at 140 g/ha [1, 9] | pest or weed control at 70 g/ha [2, 10] | pest or weed control at 140 g/ha [2, 10] | pest or weed control at 70 g/ha [2, 11] | pest or weed control at 140 g/ha [2, 11] | pest or weed control at 70 g/ha [2, 12] | pest or weed control at 140 g/ha [2, 12] | other results
1 | COC(=O)c1nc(-c2ccc(Br)c(F)c2)nc(N)c1OC [Compound 171, Methyl 6-amino-2-(4-bromo-3-fluorophenyl)-5-methoxypyrimidine-4-carboxylate] | 75 to 84% | 85 to 94% | 85 to 94% | 95 to 100% | 85 to 94% | 85 to 94% | 85 to 94% | 85 to 94% | 95 to 100% | 95 to 100% | 85 to 94% | 85 to 94% | 95 to 100% | 95 to 100% | 30 to 44% | 30 to 44% | 45 to 59% | 45 to 59% | 0 to 29% | 60 to 74% | pest or weed control at 70 g/ha [2, 13]: 30 to 44%; pest or weed control at 140 g/ha [2, 13]: 60 to 74%; pest or weed control at 70 g/ha [2, 14]: 0 to 29%; pest or weed control at 140 g/ha [2, 14]: 0 to 29%; pest or weed control at 70 g/ha [2, 15]: 0 to 29%; pest or weed control at 140 g/ha [2, 15]: 0 to 29%; pest or weed control at 70 g/ha [2, 16]: 0 to 29%; pest or weed control at 140 g/ha [2, 16]: 45 to 59%; pest or weed control at 70 g/ha [2, 17]: 60 to 74%; pest or weed control at 140 g/ha [2, 17]: 75 to 84%
2 | Nc1c(Cl)c(C(=O)O)nc(-c2ccc(I)cc2)c1Cl [Compound 173] | 60 to 74% | 85 to 94% | 85 to 94% | 95 to 100% | 85 to 94% | 85 to 94% | 85 to 94% | 85 to 94% | 0 to 29% | 45 to 59% | 95 to 100% | 95 to 100% | 0 to 29% | 0 to 29% | 60 to 74% | 60 to 74% | 95 to 100% | 95 to 100% | 60 to 74% | 75 to 84% | pest or weed control at 70 g/ha [2, 13]: 75 to 84%; pest or weed control at 140 g/ha [2, 13]: 75 to 84%; pest or weed control at 70 g/ha [2, 14]: 0 to 29%; pest or weed control at 140 g/ha [2, 14]: 0 to 29%; pest or weed control at 70 g/ha [2, 15]: 75 to 84%; pest or weed control at 140 g/ha [2, 15]: 85 to 94%; pest or weed control at 70 g/ha [2, 16]: 75 to 84%; pest or weed control at 140 g/ha [2, 16]: 85 to 94%; pest or weed control at 70 g/ha [2, 17]: 60 to 74%; pest or weed control at 140 g/ha [2, 17]: 75 to 84%

From patent US9113629B2, “4-amino-6-(4-substituted-phenyl)-picolinates and 6-amino-2-(4-substituted-phenyl)-pyrimidine-4-carboxylates and their use as herbicides” (DOW AGROSCIENCES LLC, priority 2013, dated 2015)
